The source of these data is patent US20240066085A1, “MATRIX METALLOPROTEASE 1 EXPRESSION INHIBITOR, SKIN EXTERNAL AGENT, AND USE FOR INHIBITION OF MATRIX METALLOPROTEASE 1 EXPRESSION” (NATIONAL UNIVERSITY CORPORATION KOBE UNIVERSITY, priority 2020, published 2024).

One assay concerns MMP-1 expression. Kind of assay: UVA-induced MMP-1 expression in HaCaT after PKCδ inhibitor pretreatment. Conditions: HaCaT pretreated with PKCδ inhibitor, then UVA irradiation. The class given is cell-based, human. On the procedure:
(§1) The present inventors clarified an expression mechanism of MMP-1 through an experiment. […] The experiment was performed by irradiating HaCaT (epidermal keratinocyte cell line established from a human adult under special ca 2+ concentration and temperature conditions) with ultraviolet rays (UVA).
When UVA irradiation is performed on HaCaT, the MMP-1 expression amount increases in an irradiation-dependent manner. […] Therefore, it was clarified that PKCδ is involved in expression pathway of MMP-1.

The subject of assay [1] is ERK and MEK phosphorylation. Kind of assay: UVA-induced phosphorylation of ERK and MEK in HaCaT after PKCδ inhibitor pretreatment. The class given is cell-based, human. Conditions: HaCaT pretreated with PKCδ inhibitor, then UVA irradiation. As to the method: as §1
However, when a pretreatment of adding rotterlin being a PKCδ inhibitor to HaCaT was performed, and then UVA irradiation was performed on HaCaT, induced expression of phosphorylation of ERK and MEK was suppressed. Therefore, it was clarified that: the activity of PKCδ induces phosphorylation of MEK and ERK downstream of PKC6; and expression of MMP-1 is promoted through c-Jun and the like.

In the case of `CC(=O)c1c(O)c(C)c(O)c(Cc2c(O)c3c(c(C(=O)/C=C/c4ccccc4)c2O)OC(C)(C)C=C3)c1O` [rotterlin], the MMP-1 expression entry in the assay with MMP-1 expression was “significantly suppressed”. Besides, the “induced expression of phosphorylation of ERK and MEK” value in assay [1] is listed as “suppressed”.
